Source: patent US20260209219A1, “SUBSTITUTED TETRAHYDROPYRROLO-PYRIDINONE COMPOUNDS AND THEIR USE IN TREATING MEDICAL CONDITIONS” (Karuna Therapeutics, Inc., priority 2022, published 2026)

What was measured:
[1] = system: Sprague Dawley rats; experiment: Amphetamine-evoked hyperlocomotion in rats (open field); format: in vivo, rat; details: adult male Sprague Dawley rats, 0.5 mg/kg amphetamine s.c., distance traveled over 60 min after AMP
Protocol: Animals: Adult male, Sprague Dawley rats (Envigo, Indianapolis, IN, USA) were housed in a colony maintained at 23° C. with 12 hour light/dark cycles (lights on at 0600 hour). All animals weighed 290-330 g at the beginning of the study and were equally divided into 5 groups (n=8 per group) and received one of the treatment conditions listed below. Animal protocols were approved by an Animal Care and Use Committee.
Behavioral Procedures: Studies were conducted in MedAssociates open field chambers (27.3 cm×27.3 cm×20.3 cm, MedAssociates, St. Albans, VT) in which movement was automatically tracked and recorded by 16 beam arrays. Administration pretreatment of the test article was determined to coincide with Tmax at the time of the amphetamine-evoked session with optimal route of administration. All groups were subcutaneously treated with 0.5 mg/kg amphetamine (AMP). […] Locomotor data (distance traveled) was recorded as 5-minute bins throughout the 90-minute session. […]
Statistical Analysis: Spontaneous locomotion (prior to AMP administration) was calculated as the total distance traveled during the first 30 minutes of the experimental session. AMP-evoked responses were calculated as the total distance traveled during the last 60 minutes of the experimental session which commenced immediately after AMP administration. Locomotor data were analyzed by a one-way ANOVA. […]

[2] = biological target: T1, rM4 receptors (Rattus norvegicus, UniProt P08485); experiment: Rat M4 PAM pERK assay; format: cell-based; details: CHO cells expressing rM4; with EC20 of acetylcholine (10 nM final)
T1 construct: expressed in transfected cells; host or cells: CHO cells
T1 sequence (P08485 1-478): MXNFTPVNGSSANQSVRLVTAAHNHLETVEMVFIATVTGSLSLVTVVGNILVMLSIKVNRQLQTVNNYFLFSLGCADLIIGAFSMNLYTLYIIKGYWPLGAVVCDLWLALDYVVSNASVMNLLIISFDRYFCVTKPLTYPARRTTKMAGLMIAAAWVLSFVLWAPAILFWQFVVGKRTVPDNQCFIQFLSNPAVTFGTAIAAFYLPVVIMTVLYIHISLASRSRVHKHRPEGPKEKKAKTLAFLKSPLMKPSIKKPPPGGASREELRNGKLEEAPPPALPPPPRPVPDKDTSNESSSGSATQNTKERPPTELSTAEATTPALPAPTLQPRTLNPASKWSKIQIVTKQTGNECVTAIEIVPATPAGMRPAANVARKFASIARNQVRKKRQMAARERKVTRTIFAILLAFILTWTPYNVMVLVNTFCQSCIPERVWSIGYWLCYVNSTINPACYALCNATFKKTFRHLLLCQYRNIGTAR
Protocol: Chinese hamster ovary (CHO) cells expressing either hM4 or rM4 receptors were frozen in assay ready vials (5×10^6 cells/vial) after bulking-up in culture. The day before an assay, vial(s) were thawed and cells seeded in 384 well white proxiplates at 1000/well for hM4 cells and at 2000/well for rM4 cells, in 10 μL of growth media (Hams/F12 with glutamax and 10% FCS) and incubated overnight at 37° C./5% CO2.
On the following morning, the growth media was removed by ‘flicking out’ over a bin, patting the inverted plate onto tissue, and then replacing with 10 μL of wash media (Hams/F12 with glutamax and 8 mM HEPES, NB: serum free). Then, the wash media was removed in the same way and replaced with 8 μL/well of the serum free media. Plates were then re-incubated for a further 4 hours at 37° C./5% CO2.
Compounds for testing were solubilized to 10 mM in DMSO and compound addition plates, consisting of ten-point concentration response curves (CRC) in duplicate points (10 μM top concentration, ½ log dilution series), were prepared by acoustic dispensing and the compound management group.
After the 4-hour incubation in serum free media, a 4 μL aliquot of the 3× compound solution containing an EC20 of acetylcholine (10 nM final concentration) was added to the cell plate using a 384 well plate to plate transfer. Then, the plate lid was replaced, and the cells incubated for 5 mins at 37° C./5% CO2. Following this final incubation, all cellular processes were stopped by the addition of 4 μL/well of lysis and blocking buffer and plates were incubated for 30 minutes at RT on an orbital shaker (gentle setting). Then, a final addition of 4 μL/well of antibody detection mix, containing both the Europium-Cryptate (donor) and d2 (acceptor) tagged detection components, was added followed by a further 2-hour incubation at RT, and then the plate was read using a TR-FRET (time resolved fluorescence resonance energy transfer) based protocol.

| EC50 [2] [nM] | Compound | Dose Amount of Compound at which rats displayed a reduction in amphetamine-evoked hyperlocomotion activity [1] [mg/kg] |
| --- | --- | --- |
| 100 to 500 | Cc1cc(=O)n(C)c2c1CN(C(=O)CC1CC1c1ccc(C(F)(F)F)cc1)C2 (single isomer, unassigned) [Compound I-7] | 32 |
| < 100 | Cc1c2c(n(C)c(=O)c1F)CN(C(=O)CC1CC1c1ccc(C(F)(F)F)cc1)C2 (stereo not shown) [Compound I-26] | 10 |
